Data on 22 compounds can be found in patent US10017509B2, “Macrocylic pyrimidine derivatives” (Janssen Pharmaceutica NV, priority 2014, dated 2018).

A value given as a limit tells only on which side of the number the result lay.

Assay [1] concerns the target T1, EF2K (Homo sapiens, UniProt O00418).
T1 construct: host or cells: LN-229 cell lysate
T1 sequence (O00418 1-725): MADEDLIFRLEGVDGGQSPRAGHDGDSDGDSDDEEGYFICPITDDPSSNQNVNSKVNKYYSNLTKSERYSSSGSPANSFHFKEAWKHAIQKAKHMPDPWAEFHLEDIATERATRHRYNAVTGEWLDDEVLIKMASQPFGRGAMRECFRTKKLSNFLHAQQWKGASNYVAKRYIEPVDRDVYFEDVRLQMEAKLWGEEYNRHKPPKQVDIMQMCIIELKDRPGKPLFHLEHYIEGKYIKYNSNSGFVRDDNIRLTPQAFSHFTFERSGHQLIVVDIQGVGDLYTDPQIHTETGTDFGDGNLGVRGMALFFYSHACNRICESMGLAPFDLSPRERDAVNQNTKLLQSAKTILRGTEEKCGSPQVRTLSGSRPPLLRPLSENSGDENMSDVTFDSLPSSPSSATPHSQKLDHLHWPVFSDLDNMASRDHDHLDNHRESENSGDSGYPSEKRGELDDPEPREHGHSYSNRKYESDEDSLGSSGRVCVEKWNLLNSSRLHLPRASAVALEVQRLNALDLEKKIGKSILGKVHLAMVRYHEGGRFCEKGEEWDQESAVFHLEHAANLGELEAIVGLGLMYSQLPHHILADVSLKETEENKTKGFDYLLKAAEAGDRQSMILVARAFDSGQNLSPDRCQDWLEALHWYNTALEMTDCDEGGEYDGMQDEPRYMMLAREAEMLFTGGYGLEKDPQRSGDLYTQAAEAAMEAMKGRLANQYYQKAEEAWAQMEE
Description: Biochemical EF2K lysate-based kinase assay (AlphaLISA p-eEF2 Thr56). The note with it: pIC50 = -log IC50 (M), read-out: eEF2K_C_alphalisa pIC50 (converted). An excerpt: Biochemical EF2K Lysate-Based Kinase Assay
LN-229 cells were purchased from ATCC (CRL-2611); these are glioblastoma cells. Cell lysates from LN229 were used in this kinase assay to provide both the kinase and the substrate (EF2). The AlphaLISA p-eEF2 (Thr56) detection assay was developed using a sandwich assay format with two specific antibodies recognizing different epitopes of the target, including one antibody against the phosphorylation site of interest. One anti-eEF2 antibody was conjugated onto AlphaLISA Acceptor beads, while the second antibody was biotinylated and captured by streptavidin coated Donor beads.
Compound was mixed with LN-229 cell lysates in the presence of a kinase buffer (e.g. HEPES) at a pH of 6.6, containing 10 mM Mg^2+ (e.g. magnesium acetate) and 10 mM adenosine-tri-phosphate (ATP) and incubated at room temperature for 15 minutes. The kinase reaction was stopped with excess ethylenediaminetetraacetic acid disodium salt and the biotinylated-anti phospho eEF2 antibody (3 nM) was added for 1 hour. Then the anti-EF2 acceptor beads (10 μg/ml) as well as the streptavidin coated donor beads (20 μg/ml) were added for 1 hour, and the AlphaLISA signal was measured in an Envision instrument once, left overnight, and measured again for the final read.
(§1) (pIC50 is −log IC50 where IC50 represents the concentration expressed in M at which the test compound gives 50% inhibition)

Assay [2] has as its target T1, EF2K. Put plainly: EF2K cell-based assay (P-EF2 AlphaLISA, 2-deoxyglucose stimulated MCF10A cells). The following applies: 2.5 mM 2-deoxyglucose stimulated, P-EF2 Thr56, pIC50 = -log IC50 (M), read-out: eEF2K_C_PThr56 pIC50 (converted). The method, then: In this assay, 2.5 mM 2-deoxyglucose was used to deplete intracellular ATP and activate 5′ adenosine monophosphate-activated protein kinase (AMPK) in the immortalized epithelial breast cell lines, MCF10A. MCF 10A cells were purchased from ATCC (CRL-10317).
MCF10A cells are seeded at a density of 1.25×10^5 Cells/ml at 100 μl/well in a 96-well plate and incubated for 24 hours (37° C., 5% CO2). Compound is added for 1 hour, and cell are stimulated with 2.5 mM of 2-deoxy-glucose for 4 hours. Medium is then removed, and cells are lysed in an ice-cold buffer M-PER (Thermo Scientific, 78501), containing protease and phosphatase inhibitors. P-EF2 levels are determined in these lysates using the P-EF2 AlphaLISA described above.
as §1
In general terms: In Alpha technology, singlet oxygen from a donor bead excites a nearby acceptor bead.

Assay [3] deals with Vps34 (PIK3C3 lipid kinase) (Homo sapiens, UniProt Q8NEB9). Put plainly: Biochemical Vps34 lipid kinase assay (ADP-Glo). The note with it: for remaining activity at 1 µM: 1 h, read-out: VPS34_1microM_% of cntrl; for remaining activity at 1 µM / VPS34_1microM_% of cntrl: single dose 1 μM compound, residual activity compared to control (DMSO); for IC50: serial half-log dilution 10 μM to 0.3 nM, pIC50 = -log IC50 (M). The method, then:
Biochemical Vps34 Lipid Kinase Assay
A non-radiometric kinase assay (ADP-Glo™ Assay, Promega, Madison, Wi, USA) was used for measuring the kinase activity of the PIK3C3 lipid kinase. All kinase assays were performed in 96-well half-area microtiter plates in a 25 μl reaction volume. The reaction cocktail was pipetted in 3 steps in the following order: • 10 μl of ATP solution (in assay buffer, see below) • 5 μl of test sample in 5% DMSO 10 μl of enzyme/substrate mixture
All lipid kinase assays contained 50 mM HEPES (4-(2-hydroxyethyl)-1-piperazineethanesulfonic acid)-NaOH, pH 7.5, 1 mM EGTA ((ethylene glycol tetraacetic acid), 100 mM NaCl, 0.03% CHAPS (3-[(3-Cholamidopropyl)dimethylammonio]-1-propanesulfonate), 2 mM DTT (Dithiothreitol), 20 μM ATP (corresponding to the apparent ATP-Km), kinase (7.6 nM) and substrate (50 μM). The assay for PIK3C3 additionally contained 3 mM MnCl2.
The reaction cocktails were incubated at 30° C. for 60 minutes. The reaction was stopped with 25 μl ADP-Go™ reagent per well. Plates were incubated for 40 minutes at room temperature, followed by addition of 50 μl kinase detection reagent per well and incubation for 60 minutes at room temperature. Signal was determined with a microplate luminescence reader (Victor, Perkin Elmer). The assay was either performed using a single dose of compound (1 μM final concentration in the assay reaction) with resulting data expressed as residual activity compared to control (DMSO), or using a serial (half-log) dilution of compounds starting at 10 μM and down to 0.3 nM (final concentrations in the assay) with data expressed as the pIC50.
as §1
For orientation: In ADP-Glo the light output rises with the ADP produced.

Vps34 (PIK3C3 lipid kinase), sequence (Q8NEB9 whole entry, species assumed): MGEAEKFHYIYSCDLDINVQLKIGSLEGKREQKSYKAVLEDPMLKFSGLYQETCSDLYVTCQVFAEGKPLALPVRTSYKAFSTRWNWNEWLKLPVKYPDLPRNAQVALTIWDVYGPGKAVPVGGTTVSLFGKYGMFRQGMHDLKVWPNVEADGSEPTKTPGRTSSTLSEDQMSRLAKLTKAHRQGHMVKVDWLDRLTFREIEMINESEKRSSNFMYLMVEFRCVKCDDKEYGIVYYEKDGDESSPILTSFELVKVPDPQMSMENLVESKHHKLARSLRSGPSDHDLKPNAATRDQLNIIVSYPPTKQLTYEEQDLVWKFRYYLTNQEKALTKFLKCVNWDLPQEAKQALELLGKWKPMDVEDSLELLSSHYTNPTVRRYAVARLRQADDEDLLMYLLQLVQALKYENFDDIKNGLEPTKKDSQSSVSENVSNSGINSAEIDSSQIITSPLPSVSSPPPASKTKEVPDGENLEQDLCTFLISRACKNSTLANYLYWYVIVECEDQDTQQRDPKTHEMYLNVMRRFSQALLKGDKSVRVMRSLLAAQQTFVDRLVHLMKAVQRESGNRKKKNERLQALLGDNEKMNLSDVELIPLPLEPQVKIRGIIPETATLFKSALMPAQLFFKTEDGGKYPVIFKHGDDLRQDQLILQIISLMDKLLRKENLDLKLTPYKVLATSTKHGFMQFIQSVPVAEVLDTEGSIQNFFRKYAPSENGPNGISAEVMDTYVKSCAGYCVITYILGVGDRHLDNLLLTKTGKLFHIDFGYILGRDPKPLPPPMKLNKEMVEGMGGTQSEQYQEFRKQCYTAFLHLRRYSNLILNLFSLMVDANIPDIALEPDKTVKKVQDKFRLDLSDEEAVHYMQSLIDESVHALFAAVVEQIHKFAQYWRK

On to `O=C1CN2CCN(CC2)Cc2cc(ccc2F)Nc2nccc(n2)-c2ccc(nc2)NCCCN1` [Compound 2], for which the IC50 was 6.31e-08 M at EF2K [1], 5.75e-06 M at EF2K [2] and 1e-07 M in assay [3]. Further, the remaining activity at 1 µM in assay [3] stood at 4.44%.
For `O=C1CN2CCN(CC2)Cc2cccc(c2)Nc2nccc(n2)-c2ccc(nc2)CN(CCOCC(F)(F)F)CCN1` [Compound 41], the IC50 at EF2K [1] was around 4.47e-07 M; at EF2K [2] it was 1.78e-06 M. Moreover, the remaining activity at 1 µM in assay [3] was 30.8%.
Regarding `CN1CCCN(C)c2ccc(cn2)-c2ccnc(n2)Nc2cc(F)cc(c2)CN2CCN(CC2)CC1=O` [Compound 6], the IC50 at EF2K [1] is 6.61e-07 M; at EF2K [2] it was 2.45e-05 M; in assay [3] it was 2.51e-07 M. In assay [3], the remaining activity at 1 µM is 17.4%.
Regarding `O=C1CN2CCN(CC2=O)Cc2cccc(c2)Nc2nccc(n2)-c2ccc(nc2)NCCCN1` [Compound 77], the IC50 on EF2K [1] is 2.09e-06 M; on EF2K [2], above 3.02e-05 M; in assay [3] it was 1.29e-07 M. Moreover, the remaining activity at 1 µM in assay [3] was found to be 6.27%.
As for `CN1CCCN(C)c2ccc(cn2)-c2ccnc(n2)Nc2cccc(c2)CN2CCN(CC1=O)CC2COCCN1CCOCC1` (single isomer, unassigned) [Compound 100], the IC50 at EF2K [1] was 6.46e-08 M; at EF2K [2] it was 1.48e-05 M. Besides, the remaining activity at 1 µM in assay [3] came to 43%.
For `O=C1CN2CCN(CC2)Cc2cccc(c2)Nc2nccc(n2)-c2ccc(nc2)NC(=O)CCN1` [Compound 85], the results for the IC50 on EF2K [1] and at EF2K [2] were 2.69e-06 M and above 3.02e-05 M, respectively. The remaining activity at 1 µM in assay [3] came out at 47.6%.
`CN1CCCN(C)c2ccc(cn2)-c2ccnc(n2)Nc2cccc(c2)CN2CCN(C)C(CC1=O)C2` (centres unmarked) [Compound 129]: the IC50 was 9.55e-07 M on EF2K [1], 9.33e-06 M on EF2K [2] and 4.68e-07 M in assay [3]. For the same compound, the remaining activity at 1 µM in assay [3] worked out at 9.26%.
As to `O=C1CN2CCN(CC2)Cc2cccc(c2)Nc2nccc(n2)-c2ccc(nc2)NCCN1` [Compound 119], the IC50 on EF2K [1] was 7.94e-07 M; at EF2K [2] it was 5.01e-06 M; in assay [3], 1.7e-07 M. In addition, the remaining activity at 1 µM in assay [3] was 15.7%.
Consider `CN1CCCNC(=O)CN2CCN(CC2=O)Cc2cccc(c2)Nc2nccc(n2)-c2ccc1nc2` [Compound 78], for which the IC50 at EF2K [1] was 1.2e-06 M; on EF2K [2], above 3.02e-05 M; in assay [3] it was 1.32e-07 M. For the same compound, the remaining activity at 1 µM in assay [3] turned out to be 7.48%.
For `O=C1CN2CCN(CC2)Cc2cc(Cl)cc(c2)Nc2nccc(n2)-c2ccc(nc2)NCCCN1` [Compound 9], the IC50 on EF2K [1] was around 6.03e-06 M; at EF2K [2], above 3.02e-05 M; in assay [3], 9.77e-08 M. For the same compound, the remaining activity at 1 µM in assay [3] is 8.43%.
As to `CN1CCCN(C)c2ccc(cn2)-c2ccnc(n2)Nc2cccc(c2)CN2CCN(CC1=O)C(CO)C2` (single isomer, unassigned) [Compound 95], the IC50 at EF2K [1] was 8.32e-07 M; on EF2K [2], above 3.02e-05 M; in assay [3] it was 3.47e-07 M. Also, the remaining activity at 1 µM in assay [3] stood at 18.8%.
The matching figures for `COCCN1CCNC(=O)CN2CCN(CC2)Cc2cccc(c2)Nc2nccc(n2)-c2ccc(nc2)C1` [Compound 42]: 3.24e-08 M, 4.27e-07 M, 3.02e-07 M and 10.2%.
For `O=C1CN2CCN(CC2)Cc2cccc(c2)Nc2nccc(n2)-c2ccc(nc2)N2CCCC2CN1` (centres unmarked) [Compound 80], the IC50 at EF2K [1] is 1.74e-07 M; at EF2K [2] it was 5.5e-06 M. Besides, the VPS34_1microM_% of cntrl in assay [3] is recorded as 63.22 % of cntrl.
`O=C1CN2CCN(CC2)Cc2cc(ccc2Cl)Nc2nccc(n2)-c2ccc(nc2)NCCCN1` [Compound 120]: the IC50 is 1.74e-07 M on EF2K [1], 1.45e-05 M at EF2K [2] and 1.2e-07 M in assay [3]. Moreover, the remaining activity at 1 µM in assay [3] turned out to be 7.29%.
For the compound `CN1CCCN(C)c2ccc(cn2)-c2ccnc(n2)Nc2cccc(c2)CN2CCN(CC1=O)CC2COCCN1CCOCC1` (single isomer, unassigned) [Compound 99], the figures for the IC50 (at EF2K [1]; at EF2K [2]; in assay [3]) were 2.4e-06 M, above 3.02e-05 M and 1.51e-06 M, respectively.
Turning to `O=C1CN2CCN(CC2)Cc2cc(ccc2C(=O)O)Nc2nccc(n2)-c2ccc(nc2)NCCCN1` [Compound 16], the IC50 on EF2K [1] is 2.04e-06 M; on EF2K [2] it was above 3.02e-05 M; in assay [3], 3.63e-07 M. The remaining activity at 1 µM in assay [3] came to 15.9%.
For `CN1CCCN(C)c2ccc(cn2)-c2ccnc(n2)Nc2cccc(c2)CCN2CCN(CC2)CC1=O` [Compound 29], the IC50 is 1.74e-05 M on EF2K [1], above 3.02e-05 M on EF2K [2] and 2e-07 M in assay [3]. Also, in assay [3], the remaining activity at 1 µM came out at 5.67%.
The matching figures for `CN1CCCN(C)c2ccc(cn2)-c2ccnc(n2)Nc2cccc(c2)N2CCN(CC2)CC1=O` [Compound 110]: 1.48e-06 M, above 3.02e-05 M, 3.47e-07 M and 7.68%.
Consider `NC(=O)C1CN2CCN1CC(=O)NCCCNc1ccc(cn1)-c1ccnc(n1)Nc1cccc(c1)C2` (centres unmarked) [Compound 126], for which the IC50 is 1.74e-07 M at EF2K [1], above 3.02e-05 M at EF2K [2] and 7.59e-08 M in assay [3]. The remaining activity at 1 µM in assay [3] was 4.95%.
Take `NC(=O)C1CN2CCN1Cc1cccc(c1)Nc1nccc(n1)-c1ccc(nc1)NCCCNC(=O)C2` (centres unmarked) [Compound 59]: the IC50 was 5.75e-07 M on EF2K [1], above 3.02e-05 M on EF2K [2] and 3.89e-08 M in assay [3]. For the same compound, the remaining activity at 1 µM in assay [3] is 3.56%.
Turning to `O=C1CN2CCN(CC2)Cc2cccc(c2)Nc2nccc(n2)-c2ccc(nc2)N2CC(O)CC2CCN1` (single isomer, unassigned) [Compound 90], the IC50 was 9.33e-06 M at EF2K [1], above 3.02e-05 M at EF2K [2] and 2.09e-07 M in assay [3]. The VPS34_1microM_% of cntrl in assay [3] is reported as 15.81 % of cntrl.
Regarding `COCC1C(=O)NCCCNc2ccc(cn2)-c2ccnc(n2)Nc2cccc(c2)CN2CCN1CC2` (centres unmarked) [Compound 66], the IC50 on EF2K [1] was 7.76e-08 M; on EF2K [2], 4.17e-06 M; in assay [3], 1.41e-07 M. Moreover, the remaining activity at 1 µM in assay [3] was found to be 6.72%.
